pEC50: −log10 of the molar value. Where two headings read alike, the source gives them in different places.

Assay [1] addresses T1, human somatostatin receptor subtype 4 (Homo sapiens, UniProt P31391).
T1 construct: expressed in transfected cells
The experiment in a line: cAMP assay for hSST4R (inhibition of cAMP via human SST4 receptor). The conditions noted are these: from inhibition of cAMP via human SST5 receptor and human SST4 receptor. It is filed as cell-based. The source says:
cAMP Assay Protocol hSST4R:
(In general: Changes in cAMP serve as a functional read-out for many G protein-coupled receptors.)

Assay [2] concerns the target human somatostatin receptor subtype 5 (Homo sapiens, UniProt P35346). The experiment in a line: cAMP assay for SST5R (inhibition of cAMP via human SST5 receptor). The following applies: for Fold selectivity for SST5 vs SST2: SST5 over SST2, class symbols.
Assay [3] has as its target T2, human somatostatin receptor subtype 2 (Homo sapiens, UniProt P30874).
T2 construct: expressed in transfected cells
The experiment in a line: cAMP assay for SST2R (inhibition of cAMP via human SST2 receptor). It is filed as cell-based. The conditions noted are these: Table B, read-out: SST2 potency. The source says:
cAMP Assay Protocol for SST2R:

Assay [4] concerns the target T3, human somatostatin receptor subtype 3 (Homo sapiens, UniProt P32745).
T3 construct: expressed in transfected cells
The experiment in a line: cAMP assay for SST3R (inhibition of cAMP via human SST3 receptor). It is filed as cell-based. The conditions noted are these: from inhibition of cAMP via human SST5 receptor and human SST3 receptor. The source says: cAMP Assay Protocol for SST3R:

The mark [5] stands for this setting: read-out: SST5 potency, inhibition of cAMP via human SST5 receptor, Table B.

Chain of human somatostatin receptor subtype 5 (P35346 whole entry): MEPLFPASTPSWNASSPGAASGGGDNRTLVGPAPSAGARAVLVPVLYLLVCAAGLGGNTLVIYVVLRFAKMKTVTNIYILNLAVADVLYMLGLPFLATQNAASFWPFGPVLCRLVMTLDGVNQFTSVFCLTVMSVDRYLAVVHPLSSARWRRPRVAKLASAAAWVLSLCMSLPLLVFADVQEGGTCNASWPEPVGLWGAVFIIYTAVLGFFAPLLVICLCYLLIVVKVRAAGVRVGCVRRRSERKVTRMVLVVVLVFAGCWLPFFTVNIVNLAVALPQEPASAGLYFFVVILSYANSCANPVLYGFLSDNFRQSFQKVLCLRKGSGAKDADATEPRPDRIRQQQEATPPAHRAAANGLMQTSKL
T2 sequence (P30874 whole entry): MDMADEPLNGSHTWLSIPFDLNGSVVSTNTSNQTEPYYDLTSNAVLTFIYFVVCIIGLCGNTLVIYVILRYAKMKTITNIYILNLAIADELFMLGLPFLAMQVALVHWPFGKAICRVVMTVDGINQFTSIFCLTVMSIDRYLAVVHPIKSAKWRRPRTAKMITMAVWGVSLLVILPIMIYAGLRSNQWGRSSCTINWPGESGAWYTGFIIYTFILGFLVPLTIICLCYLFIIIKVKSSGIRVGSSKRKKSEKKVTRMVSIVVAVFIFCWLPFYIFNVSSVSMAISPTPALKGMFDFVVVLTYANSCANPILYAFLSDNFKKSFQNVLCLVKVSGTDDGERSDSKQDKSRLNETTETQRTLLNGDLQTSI
T3 sequence (P32745 whole entry): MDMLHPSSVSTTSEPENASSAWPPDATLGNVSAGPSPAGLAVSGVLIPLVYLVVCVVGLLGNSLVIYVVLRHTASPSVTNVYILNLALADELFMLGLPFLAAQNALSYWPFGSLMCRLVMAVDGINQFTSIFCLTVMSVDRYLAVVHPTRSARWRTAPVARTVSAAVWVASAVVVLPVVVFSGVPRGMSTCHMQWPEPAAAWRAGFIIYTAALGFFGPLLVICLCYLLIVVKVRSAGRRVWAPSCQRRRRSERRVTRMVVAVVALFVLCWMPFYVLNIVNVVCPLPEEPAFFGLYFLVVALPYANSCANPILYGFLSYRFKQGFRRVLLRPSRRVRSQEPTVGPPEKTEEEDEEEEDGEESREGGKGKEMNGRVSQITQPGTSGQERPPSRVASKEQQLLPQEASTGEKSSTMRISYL
T1 sequence (P31391 whole entry): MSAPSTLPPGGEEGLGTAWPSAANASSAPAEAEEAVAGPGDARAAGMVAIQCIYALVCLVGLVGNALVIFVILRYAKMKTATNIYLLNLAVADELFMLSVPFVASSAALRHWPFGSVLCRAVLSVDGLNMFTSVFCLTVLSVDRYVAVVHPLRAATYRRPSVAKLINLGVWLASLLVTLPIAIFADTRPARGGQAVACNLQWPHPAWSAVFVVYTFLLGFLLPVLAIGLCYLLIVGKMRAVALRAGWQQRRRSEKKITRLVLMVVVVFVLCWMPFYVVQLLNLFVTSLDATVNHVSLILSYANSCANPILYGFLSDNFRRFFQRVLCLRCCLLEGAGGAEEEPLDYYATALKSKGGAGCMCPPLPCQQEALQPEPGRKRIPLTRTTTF

Regarding `NCC1CN(c2c(-c3ccc4ccccc4c3)cncc2-c2nc3cc(F)cc(F)c3[nH]2)C1` [Compound 1-41, 1-{1-[3-(4,6-difluoro-1H-1,3-benzodiazol-2-yl)-5-(naphthalen-2-yl)pyridin-4-yl]azetidin-3-yl}methanamine], in assay [1], the “Fold selectivity for SST5 vs SST4” value is recorded as 8.8 fold. This compound also showed a pEC50 in assay [2] of 6.00 to 7.00.
As to `CCC(N)C1CN(c2c(-c3cc(C)cc(F)c3)cncc2-c2nc3cc(F)cc(F)c3[nH]2)C1` (centres unmarked) [Compound 1-51, 1-{1-[3-(4,6-difluoro-1H-1,3-benzodiazol-2-yl)-5-(3-fluoro-5-methylphenyl)pyridin-4-yl]azetidin-3-y}propan-1-amine], the pEC50 in assay [3] was below 6.00; in assay [2], above 8.00; in assay [2] (setting [5]), above 8.00. The “Fold selectivity for SST5 vs SST3” value in assay [4] came to 200 fold. In addition, the “Fold selectivity for SST5 vs SST4” value in assay [1] was determined as 812 fold. The “Fold selectivity for SST5 vs SST2” value in assay [2] is given as “+++ (+++=≥500)”.
Take `CC(N)C1CN(c2c(-c3ccc(F)c(C#N)c3)cncc2-c2nc3cc(F)cc(F)c3[nH]2)C1` (centres unmarked) [Compound 1-65, 5-{4-[3-(1-aminoethyl)azetidin-1-yl]-5-(4,6-difluoro-1H-1,3-benzodiazol-2-yl)pyridin-3-yl}-2-fluorobenzonitrile]: the pEC50 was 6.00 to 7.00 in assay [3], above 8.00 in assay [2] and above 8.00 in assay [2] (setting [5]). For the same compound, the “Fold selectivity for SST5 vs SST3” value in assay [4] is above 1000 fold. For the same compound, in assay [1], the “Fold selectivity for SST5 vs SST4” value was 384 fold. Also, in assay [2], the “Fold selectivity for SST5 vs SST2” value was “+++ (+++=≥500)”.
With `Cc1ccc(F)c2[nH]c(-c3cncc(-c4cc(F)cc(C#N)c4)c3N3CC[C@H](N)C3)nc12` [Compound 2-63, 3-{4-[(3S)-3-aminopyrrolidin-1-yl]-5-(7-fluoro-4-methyl-1H-1,3-benzodiazol-2-yl)pyridin-3-yl}-5-fluorobenzonitrile], the pEC50 in assay [3] was 6.00 to 7.00; in assay [2], above 8.00; in assay [2] (setting [5]) it was above 8.00. Besides, the “Fold selectivity for SST5 vs SST3” value in assay [4] was 43 fold. The “Fold selectivity for SST5 vs SST4” value in assay [1] stood at 18 fold. Further, the “Fold selectivity for SST5 vs SST2” value in assay [2] is “+++ (+++=≥500)”.
Take `Cc1ccc(F)c2nc(-c3cncc(-c4cccc(C#N)c4)c3N3CC[C@H](N)C3)[nH]c12` [Compound 2-101, 3-{4-[(3S)-3-aminopyrrolidin-1-yl]-5-(7-fluoro-4-methyl-1H-1,3-benzodiazol-2-yl)pyridin-3-yl}benzonitrile]: the figures for the pEC50 in assay [3], in assay [2] and in assay [2] (setting [5]) were 6.00 to 7.00, above 8.00 and above 8.00, respectively. In addition, the “Fold selectivity for SST5 vs SST3” value in assay [4] is 42 fold. Moreover, the “Fold selectivity for SST5 vs SST4” value in assay [1] amounted to 11 fold. Further, in assay [2], the “Fold selectivity for SST5 vs SST2” value was “+++ (+++=≥500)”.
As to `Cc1cccc2nc(-c3cncc(-c4ccnc(C#N)c4)c3N3CC[C@](C)(N)C3)[nH]c12` [Compound 2-145, 4-[(3S)-3-amino-3-methylpyrrolidin-1-yl]-5-(4-methyl-1H-1,3-benzodiazol-2-yl)-[3,4′-bipyridine]-2′-carbonitrile], the values for the pEC50 in assay [3], in assay [2] and in assay [2] (setting [5]) were 6.00 to 7.00, above 8.00 and above 8.00, respectively. Also, the “Fold selectivity for SST5 vs SST4” value in assay [1] is 63 fold. The “Fold selectivity for SST5 vs SST2” value in assay [2] is reported as “+++ (+++=≥500)”.
Take `Cc1c(F)ccc2nc(-c3cncc(-c4ccnc(C#N)c4)c3N3CC[C@](C)(N)C3)[nH]c12` [Compound 2-164, 4-[(3S)-3-amino-3-methylpyrrolidin-1-yl]-5-(5-fluoro-4-methyl-1H-1,3-benzodiazol-2-yl)-[3,4′-bipyridine]-2′-carbonitrile]: in assay [1], the “Fold selectivity for SST5 vs SST4” value was determined as 323 fold. Also, the pEC50 in assay [2] was above 8.00.
For `Cc1ccnc2[nH]c(-c3cncc(-c4cc(F)c(F)c(C#N)c4)c3N3CC[C@](C)(N)C3)nc12` [Compound 2-165, 5-{4-[(3S)-3-amino-3-methylpyrrolidin-1-yl]-5-{7-methyl-1H-imidazo[4,5-b]pyridin-2-yl}pyridin-3-yl}-2,3-difluorobenzonitrile], the results for the pEC50 in assay [3], in assay [2] and in assay [2] (setting [5]) were 6.00 to 7.00, above 8.00 and above 8.00, respectively. In addition, the “Fold selectivity for SST5 vs SST4” value in assay [1] was found to be 56 fold. The “Fold selectivity for SST5 vs SST2” value in assay [2] is on record as “++ (++=100 to 499)”.
Consider `Cc1cc(-c2cncc(-c3nc4c(F)cccc4[nH]3)c2N2CC[C@H](N)C2)ccn1` [Compound 2-181, (3S)-1-[5-(4-fluoro-1H-1,3-benzodiazol-2-yl)-2′-methyl-[3,4′-bipyridin]-4-yl]pyrrolidin-3-amine], for which the pEC50 in assay [3] was below 6.00; in assay [2] it was 7.00 to 8.00; in assay [2] (setting [5]), 7.00 to 8.00. Also, the “Fold selectivity for SST5 vs SST2” value in assay [2] is given as “++ (++=100 to 499)”.
Turning to `N#Cc1cc(F)cc(-c2cncc(-c3nc4cc(F)cc(F)c4[nH]3)c2N2CC[C@H](N)C2)c1` [Compound 2-195, 3-{4-[(3S)-3-aminopyrrolidin-1-yl]-5-(4,6-difluoro-1H-1,3-benzodiazol-2-yl)pyridin-3-yl}-5-fluorobenzonitrile], the pEC50 in assay [3] was below 6.00; in assay [2] (setting [5]) it was above 8.00. Moreover, the “Fold selectivity for SST5 vs SST2” value in assay [2] was “+++ (+++=≥500)”.
As to `Cc1cc(F)cc(-c2cncc(-c3nc4ccc(Cl)cc4[nH]3)c2N2CC[C@H](N)C2)c1` [Compound 2-196, (3S)-1-[3-(6-chloro-1H-1,3-benzodiazol-2-yl)-5-(3-fluoro-5-methylphenyl)pyridin-4-yl]pyrrolidin-3-amine], the pEC50 in assay [3] is 6.00 to 7.00; in assay [2], 7.00 to 8.00; in assay [2] (setting [5]), 7.00 to 8.00. In addition, the “Fold selectivity for SST5 vs SST2” value in assay [2] was “+ (+=10 to 99)”.
Regarding `Cc1cc(F)cc(-c2cncc(-c3nc4cccc(Cl)c4[nH]3)c2N2CC[C@H](N)C2)c1` [Compound 2-197, (3S)-1-[3-(7-chloro-1H-1,3-benzodiazol-2-yl)-5-(3-fluoro-5-methylphenyl)pyridin-4-yl]pyrrolidin-3-amine], the values for the pEC50 in assay [3], in assay [2] and in assay [2] (setting [5]) were 6.00 to 7.00, above 8.00 and above 8.00, respectively. In addition, the “Fold selectivity for SST5 vs SST2” value in assay [2] was “++ (++=100 to 499)”.
In the case of `N#Cc1cc(F)cc(-c2cncc(-c3nc4ccc(Cl)cc4[nH]3)c2N2CC[C@H](N)C2)c1` [Compound 2-198, 3-{4-[(3S)-3-aminopyrrolidin-1-yl]-5-(6-chloro-1H-1,3-benzodiazol-2-yl)pyridin-3-yl}-5-fluorobenzonitrile], the pEC50 in assay [3] was below 6.00; in assay [2] it was above 8.00; in assay [2] (setting [5]) it was above 8.00. Besides, the “Fold selectivity for SST5 vs SST2” value in assay [2] is reported as “++ (++=100 to 499)”.
Take `Cc1cccc(-c2cncc(-c3nc4cccc(C)c4[nH]3)c2N2CC[C@@H](N)C2)c1` [Compound 2-199, (3R)-1-[3-(4-methyl-1H-1,3-benzodiazol-2-yl)-5-(3-methylphenyl)pyridin-4-yl]pyrrolidin-3-amine]: the pEC50 in assay [3] was below 6.00; in assay [2], 6.00 to 7.00; in assay [2] (setting [5]), 6.00 to 7.00. The “Fold selectivity for SST5 vs SST2” value in assay [2] is “+ (+=10 to 99)”.
Consider `Cc1ccnc2nc(-c3cncc(-c4cc(F)cc(C#N)c4)c3N3CC[C@](C)(N)C3)[nH]c12` [Compound 2-202, 3-{4-[(3S)-3-amino-3-methylpyrrolidin-1-yl]-5-{7-methyl-1H-imidazo[4,5-b]pyridin-2-yl}pyridin-3-yl}-5-fluorobenzonitrile], for which the pEC50 in assay [3] is 6.00 to 7.00; in assay [2], above 8.00; in assay [2] (setting [5]), above 8.00. For the same compound, the “Fold selectivity for SST5 vs SST2” value in assay [2] is reported as “+++ (+++=≥500)”.

The record behind these values is patent US11608335B2, “Somatostatin modulators and uses thereof” (CRINETICS PHARMACEUTICALS, INC., priority 2018, dated 2023).
